Data published in patent US20190000128A1, “INFANT FORMULA COMPRISING HUMAN MILK PEPTIDES” (THE A2 MILK COMPANY LIMITED, priority 2015, published 2019).

System: neuronal stem cell (NSC) cultures / foetal stem cells
Test: Neuronal stem cell neurogenesis, differentiation and proliferation by immunocytochemistry
Type: cell-based
Conditions: foetal stem cells treated with 1 μM; FIG. 3B
Method: Previously isolated and frozen neuronal stem cell cultures were properly thawed, maintained and cultured. Cell suspensions were grown in a defined medium (DF12) composed of DMEM/F12 (1:1), 2 mM L-glutamine, 1 mM sodium pyruvate, antibiotics/antimycotics (Invitrogen, Grand Island, N.Y.), 0.6% glucose, 25 μg/ml insulin, 20 nM progesterone, 60 μM putrescine, 30 nM sodium selenite (all from Sigma, St. Louis, Mo.), 100 μg/ml human transferrin (Roche, Indianapolis, Ind.), 20 ng/ml human recombinant […] growth factor (EGF; Roche or Invitrogen, Chicago, Ill.) and basic fibroblast growth factor (bFGF; Upstate Biotechnology, Lake Placid, N.Y.). The cells grew as free-floating aggregates (neurospheres) and were passaged by mechanical dissociation every 3-4 d. […]
To identify proliferating cells, 100 μM BrdU, an analog of thymidine, was added 24 h before cell fixation. […] A primary monoclonal antibody against BrdU (1:20; Dakopatts) was added for 1 h at room temperature and detected using AlexaFluor 488-labelled goat anti-mouse IgG (H+L). […] Apoptotic cells were visualised with Hoechst 33342 (LifeTechnologies, Md.) as fragmented pycnotic blue-stained nuclei and counted under the fluorescence microscope (López-Toledano M.A. and Shelanski M.L., 2004 Neurogenic effect of beta-amyloid peptide in the development of neural stem cells. J Neurosci. 24(23):5439-44). […]

SMILES: CN1CC[C@]23c4c5ccc(O)c4O[C@H]2[C@@H](O)C=C[C@H]3[C@H]1C5 [morphine, Morphine]
- neuronal proliferation (image of magnified foetal stem cells): extensive neuronal proliferation
